Data: patent US20090186361A1, “METHODS OF PREDICTING THE PHARMACEUTICAL TOXICITY OF TAXANES” (priority 2008, published 2009)

Test: Toxicity Index (TI) computed from graded treatment-attributable adverse events (NCI CTC) of recipient subjects, per treatment cycle
Type: in vivo, human
Set-up: key to Toxicity Index TI9 Mean / Toxicity Index TI12 Mean / Toxicity Index TI13 Mean / Toxicity Index TI16 Mean / Toxicity Index TI17 Mean / Toxicity Index TI19 Mean / Toxicity Index TI1 Mean / Toxicity Index TI2 Mean / Toxicity Index TI4 Mean: weighted sum of ordered recoded CTC grades; ≥3 = DLT
Conditions: mean over recipient subjects; for Toxicity Index TI1 Mean: cycle 1, score between 0 and 5; for Toxicity Index TI2 Mean: cycle 2; for Toxicity Index TI3 Mean: cycle 3; for Toxicity Index TI4 Mean: cycle 4; for Toxicity Index TI5 Mean: cycle 5; for Toxicity Index TI6 Mean: cycle 6; for Toxicity Index TI7 Mean: cycle 7; for Toxicity Index TI8 Mean: cycle 8; for Toxicity Index TI9 Mean: cycle 9; for Toxicity Index TI10 Mean: cycle 10; for Toxicity Index TI11 Mean: cycle 11; for Toxicity Index TI12 Mean: cycle 12; for Toxicity Index TI13 Mean: cycle 13; for Toxicity Index TI14 Mean: cycle 14; for Toxicity Index TI15 Mean: cycle 15; for Toxicity Index TI16 Mean: cycle 16; for Toxicity Index TI17 Mean: cycle 17; for Toxicity Index TI18 Mean: cycle 18; for Toxicity Index TI19 Mean: cycle 19; for Toxicity Index TI20 Mean: cycle 20; for Toxicity Index TI21 Mean: cycle 21
From the text: Recipient subject-specific characteristics, medical and treatment histories, doses of experimental agents, and graded toxicities were extracted from case report forms. Toxicity data were represented for each subject as a set of treatment-attributable adverse events, each graded (0, 1, 2, 3, or 4) according to NCI Common Toxicity Criteria (CTC). The term “toxicity profile” as used herein refers to the collection of graded toxicities observed for an individual recipient subject.
To include all trials in the same analysis, a common definition of dose limiting toxicity (DLT) was adopted. Specifically, DLT was defined as occurring whenever any one of the following was observed: grade 4 hematological toxicity (grade 4 neutropenia or thrombocytopenia of any duration); a grade 3 or 4 non-hematological toxicity (excluding nausea, vomiting, and alopecia); febrile neutropenia of any grade.
To identify risk factors and other pre-trial characteristics of interest, several ways of summarizing the toxicity profile of a given recipient subject into a single measure of overall severity were examined as described, for example in Rogatko et al., (2004) Clin. Cancer Res. 10:4645-4651, incorporated herein by reference in its entirety. A summary measure that takes into account all observed toxicity grades rather than just the most severe one was used. The summary measure, the Toxicity Index (TI), is computed according to the following algorithm: • (a) recode each hematologic toxicity as the maximum of 0 and the observed grade minus one (so that a grade 3 toxicity is dose limiting irrespective of whether or not it is hematologic). • (b) Let the toxicity grades in a subject's recoded toxicity profile be represented in descending order by the sequence X1≧X2≧ . . . ≧Xn • (c) Calculate the subject's TI score as the weighted sum of the ordered toxicity grades:
Any score greater than or equal to 3 corresponds to a DLT according to the definition given above, and the maximum toxicity grade is the integer part of the final score. […] All toxicity grades are taken into account, though lower grades will contribute less to the final score.
The score is a number between 0 and 5.
Thirty (30) recipient subjects already receiving treatment with paclitaxel were screened for the presence of SNPs in the CYP2C8 and TUBB loci. Clinical data from each of the recipient subjects was used to first calculate a Toxicity Index (TI) value for each individual according to the method presented in Example 1, above. The genotype for each recipient subject with regard to the SNPs of CYP2C8 and TUBB was determined using SNPWARE™ and single base extension according to the methods of Example 4, above.
A preliminary data analysis focused on the relationship between the Toxicity Index and the recipient subjects' demographic/genetic information. […] Univariate linear regression analysis was conducted first to find significant covariates in predicting the Toxicity Index in one of five cycles, then multivariable analysis was used to determine the best model in fitting the data. A mixed model for repeated measurement was implemented in modeling Toxicity Index in the first five cycles, and also in all cycles. Autoregressive covariance structure was used in the mixed model. SAS and Minitab were used in the analysis.

| Compound | Toxicity Index TI1 Mean | Toxicity Index TI2 Mean | Toxicity Index TI3 Mean | Toxicity Index TI4 Mean | Toxicity Index TI5 Mean | Toxicity Index TI6 Mean | Toxicity Index TI7 Mean | Toxicity Index TI8 Mean | Toxicity Index TI9 Mean | Toxicity Index TI10 Mean | Toxicity Index TI11 Mean | Toxicity Index TI12 Mean | Toxicity Index TI13 Mean | Toxicity Index TI14 Mean | Toxicity Index TI15 Mean | Toxicity Index TI16 Mean | Toxicity Index TI17 Mean | Toxicity Index TI18 Mean | Toxicity Index TI19 Mean | Toxicity Index TI20 Mean | other results |
| --- | --- | --- | --- | --- | --- | --- | --- | --- | --- | --- | --- | --- | --- | --- | --- | --- | --- | --- | --- | --- | --- |
| CC(=O)O[C@@]12CO[C@@H]1C[C@H](O)[C@@]1(C)C(=O)[C@H](O)C3=C(C)[C@@H](OC(=O)[C@H](O)[C@@H](NC(=O)OC(C)(C)C)c4ccccc4)C[C@@](O)([C@@H](OC(=O)c4ccccc4)[C@H]21)C3(C)C (relative stereo) [Docetaxel, Benzenepropanoic acid, β-(((1,1-dimethylethoxy)carbonyl)amino)-α-hydroxy-, 12b-(acetyloxy)-12-(benzoyloxy)-2a,3,4,4a,5,6,9,10,11,12,12a,12b-dodecahydro-4,6,11-trihydroxy-4a,8,13,13-tetramethyl-5-oxo-7,11-methano-1H-cyclodeca(3,4)benz(1,2-b)oxet-9-yl ester trihydrate, (2aR-(2aα,4β,4aβ,6β,9(αR*,βS),11α,12α,12aα,12bα))-] | 2.727 | 2.840 | 2.737 | 3.058 | 2.669 | 2.875 | 2.646 | 2.804 | 2.438 | 2.623 | 2.297 | 2.090 | 2.404 | 2.171 | 2.083 | 1.875 | 1.875 | 1.875 | 2.625 | 1.875 | Toxicity Index TI21 Mean: 1.875 |
| CC(=O)O[C@H]1C(=O)[C@@]2(C)[C@H]([C@H](OC(=O)c3ccccc3)[C@]3(O)C[C@H](OC(=O)[C@H](O)[C@@H](NC(=O)c4ccccc4)c4ccccc4)C(C)=C1C3(C)C)[C@]1(OC(C)=O)CO[C@@H]1C[C@@H]2O [Paclitaxel, (2aR,4S,4aS,6R,9S,11S,12S,12aR,12bS)-1,2a,3,4,4a,6,9,10,11,12,12a,12b-Dodecahydro-4,6,9,11,12,12b-hexahydroxy-4a,8,13,13-tetramethyl-7,11-methano-5H-cyclodeca(3,4)benz(1,2-b)oxet-5-one 6,12b-diacetate, 12-benzoate, 9-ester with (2R,3S)-N-benzoyl-3-phenylisoserine] | 2.175 | 2.399 | 2.491 | 2.787 | 2.696 | 2.580 | 2.529 | 2.206 | 2.292 | 1.875 | 2.583 | 1.750 | 1.875 | 1.875 | 1.875 | 2.583 | 2.583 | 2.583 | 2.583 | 2.944 | Toxicity Index TI21 Mean: 3.469 |
